Experimental data reported in patent US7241799B2, “Cannabimimetic indole derivatives” (University of Connecticut, priority 1999, dated 2007).
Like-named read-outs stand apart in the source and are kept apart here.

How the values were obtained:
CB1 receptor = target: T1, CB1 receptor (Rattus norvegicus, UniProt P20272); experiment: CB1 receptor binding, [3H] CP-55,940 displacement, rat forebrain membranes; settings: for Ki: rat forebrain membranes, 0.8 nM [3H] CP-55,940, read-out: Kl CB1
T1 construct: membranes were prepared from rat forebrain membranes; from tissue; host or cells: rat forebrain
T1 sequence (P20272 whole entry): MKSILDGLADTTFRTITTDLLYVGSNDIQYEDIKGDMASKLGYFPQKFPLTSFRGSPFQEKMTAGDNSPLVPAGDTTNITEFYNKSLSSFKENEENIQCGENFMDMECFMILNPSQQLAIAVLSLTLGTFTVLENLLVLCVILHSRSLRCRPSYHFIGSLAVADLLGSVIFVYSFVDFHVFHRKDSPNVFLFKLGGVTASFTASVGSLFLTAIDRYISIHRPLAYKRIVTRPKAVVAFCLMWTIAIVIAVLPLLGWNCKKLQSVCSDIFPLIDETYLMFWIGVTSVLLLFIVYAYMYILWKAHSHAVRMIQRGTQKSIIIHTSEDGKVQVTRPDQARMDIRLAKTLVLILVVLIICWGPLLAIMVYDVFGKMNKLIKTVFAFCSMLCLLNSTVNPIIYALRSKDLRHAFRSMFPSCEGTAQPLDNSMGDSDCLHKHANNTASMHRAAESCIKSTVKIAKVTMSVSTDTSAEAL
Experimental: (§1) The materials were tested for CB2 receptor binding affinity and for CB1 receptor affinity (to determine selectivity for the CB2 receptor). As used herein, “binding affinity” is represented by the IC50 value which is the concentration of an analog required to occupy the 50% of the total number (Bmax) of the receptors. The lower the IC50 value the higher the binding affinity.
For the CB1 receptor binding studies, membranes were prepared from rat forebrain membranes according to the procedure of P. R. Dodd et al, A Rapid Method for Preparing Synaptosomes: Comparison with Alternative Procedures, Brain Res., 107–118 (1981). The binding of the novel analogues to the CB1 cannabinoid receptor was assessed as described in W. A. Devane et al, Determination and Characterization of a Cannabinoid Receptor in a Rat Brain, Mol. Pharmacol., 34, 605–613 (1988) and A. Charalambous et al, 5′-azido Δ^8 THC: A Novel Photoaffinity Label for the Cannabinoid Receptor, J. Med. Chem., 35, 3076–3079 (1992) with the following changes. The above articles are incorporated by reference herein.
Membranes, previously frozen at −80° C., were thawed on ice. To the stirred suspension was added three volumes of TME (25 mM Tris-HCl buffer, 5 mM MgCl2 and 1 mM EDTA) at a pH 7.4. The suspension was incubated at 4° C. for 30 min. At the end of the incubation, the membranes were pelleted and washed three times with TME.
(§2) The treated membranes were subsequently used in the binding assay described below. Approximately 30 μg of membranes were incubated in silanized 96-well microtiter plate with TME containing 0.1% essentially fatty acid-free bovine serum albumin (BSA), 0.8 nM [^3H] CP-55,940, and various concentrations of test materials at […] for 1 hour. The samples were filtered using Packard Filtermate 196 and Whatman GF/C filterplates and washed with wash buffer (TME) containing 0.5% BSA. Radioactivity was detected using MicroScint 20 scintillation cocktail added directly to the dried filterplates, and the filterplates were counted using a Packard Instruments Top-Count. Nonspecific binding was assessed using 100 nM CP-55,940. Data collected from three independent experiments performed with duplicate determinations was normalized between 100% and 0% specific binding for [^3H] CP-55,940, determined using buffer and 100 nM CP-55,940. The normalized data was analyzed using a 4-parameter nonlinear logistic equation to yield IC50 values. Data from at least two independent experiments performed in duplicate was used to calculate IC50 values which were converted to Ki values using the assumptions of Cheng et al, Relationship Between the Inhibition Constant (Ki) and the concentration of Inhibitor which causes 50% Inhibition (IC50) of an Enzymatic Reaction, Biochem. Pharmacol., 22, 3099–3102, (1973), which is incorporated by reference herein.

CB2 receptor = target: T2, CB2 receptor (Mus musculus, UniProt P47936); experiment: CB2 receptor binding, [3H] CP-55,940 displacement, mouse spleen membranes; settings: for Ki: mouse spleen membranes, [3H] CP-55,940, read-out: Kl CB2 (converted)
T2 construct: membranes were prepared from frozen mouse spleen; from tissue; host or cells: mouse spleen
T2 sequence (P47936 whole entry): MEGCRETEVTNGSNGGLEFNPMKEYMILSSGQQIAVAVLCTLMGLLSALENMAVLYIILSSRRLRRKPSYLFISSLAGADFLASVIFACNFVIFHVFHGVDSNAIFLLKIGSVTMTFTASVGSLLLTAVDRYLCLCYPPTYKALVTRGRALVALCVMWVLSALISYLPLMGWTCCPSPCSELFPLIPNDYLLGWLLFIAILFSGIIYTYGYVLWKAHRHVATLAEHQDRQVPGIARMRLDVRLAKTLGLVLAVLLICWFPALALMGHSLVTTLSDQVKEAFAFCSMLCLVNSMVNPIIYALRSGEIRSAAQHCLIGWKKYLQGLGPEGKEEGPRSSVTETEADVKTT
Experimental: as §1, §2
For the CB2 receptor binding studies, membranes were prepared from frozen mouse spleen essentially according to the procedure of P. R. Dodd et al, A Rapid Method for Preparing Synaptosomes: Comparison with Alternative Procedures, Brain Res., 226, 107–118 (1981) which is incorporated by reference herein. Silanized centrifuge tubes were used throughout to minimize receptor loss due to adsorption. The CB2 binding assay was conducted in the same manner as for the CB1 binding assay. The binding affinities (Ki) were also expressed in nanomoles (nM).

SMILES	Ki (CB1 receptor; TABLE 2)	Ki (CB2 receptor; TABLE 2)	selectivity for the CB1 receptor (CB1 receptor; binding selectivity CB1 versus CB2, from the results in the TABLES)	Ki (CB1 receptor; TABLE 1, racemic samples)	Ki (CB2 receptor; TABLE 1, racemic samples)	selectivity for the CB2 receptor (CB2 receptor; binding selectivity CB2 versus CB1, from the results in the TABLES)
O=C(c1cccc2ccccc12)c1cn(CCCI)c2ccccc12 [AM1292]	3.1 nM	18.1 nM	–	–	–	–
O=C(c1cccc2ccccc12)c1cn(CCCN=C=S)c2ccccc12 [AM1294]	283 nM	237 nM	–	–	–	–
O=C(c1cccc2ccccc12)c1cn(CCCCF)c2ccccc12 [AM1295]	2.5 nM	30.7 nM	high selectivity for the CB1 receptor	–	–	–
CN1CCCCC1Cn1cc(C(=O)c2cccc3ccccc23)c2ccccc21 (stereo not shown) [AM1296]	–	–	–	7.57 nM	3.88 nM	–
CN1CCCCC1Cn1cc(C(=O)c2ccc([N+](=O)[O-])c3ccccc23)c2ccccc21 (stereo not shown) [AM1299]	–	–	–	12.4 nM	13.5 nM	–
O=C(c1cccc2ccccc12)c1cn(CCCCCF)c2ccccc12 [AM2201]	1 nM	2.6 nM	–	–	–	–
O=C(c1cccc2ccccc12)c1cn(CCCCCO)c2ccccc12 [AM2202]	33.1 nM	111 nM	–	–	–	–
O=C(c1cccc2ccccc12)c1cn(CCCCCI)c2ccccc12 [AM2203]	7.8 nM	45.8 nM	–	–	–	–
O=C(c1cccc2ccccc12)c1cn(CCCCCN=C=S)c2ccccc12 [AM2204]	7.5 nM	24.4 nM	–	–	–	–
O=C(c1ccc([N+](=O)[O-])c2ccccc12)c1cn(CCCCI)c2ccccc12 [AM2210]	1.8 nM	11.3 nM	–	–	–	–
[N-]=[N+]=Nc1ccc(C(=O)c2cn(CCCCI)c3ccccc23)c2ccccc12 [AM2213]	3 nM	30 nM	–	–	–	–
O=C(c1ccc(N=C=S)c2ccccc12)c1cn(CCCCI)c2ccccc12 [AM2216]	42.4 nM	213 nM	–	–	–	–
Cc1c(C(=O)c2ccccc2I)c2ccccc2n1CCCCCF [AM2225]	5.97 nM	3.8 nM	–	–	–	–
Cc1ccc(S(=O)(=O)OCCCCCn2c(C)c(C(=O)c3ccccc3I)c3ccccc32)cc1 [AM2227]	1020 nM	2970 nM	–	–	–	–
Cc1c(C(=O)c2ccccc2I)c2ccccc2n1CCCCCI [AM2229]	116 nM	46.2 nM	–	–	–	–
Cc1c(C(=O)c2ccccc2I)c2ccccc2n1CCCCCN=C=S [AM2230]	195 nM	29.5 nM	–	–	–	high selectivity for the CB2 receptor
N#CCCCCn1cc(C(=O)c2cccc3ccccc23)c2ccc([N+](=O)[O-])cc21 [AM2231]	4.9 nM	23.9 nM	–	–	–	–
N#CCCCCn1cc(C(=O)c2cccc3ccccc23)c2ccccc21 [AM2232]	0.28 nM	1.48 nM	–	–	–	–
O=C(c1cccc2ccccc12)c1cn(CCCCCF)c2cc(I)ccc12 [Am1230]	1.1 nM	2.4 nM	–	–	–	–
